The target of the assay is NLRP3 (Homo sapiens (Human), UniProt Q96P20). Kind of assay: THP-1 cells pyroptosis assay (LPS priming, nigericin, resazurin readout). Type of assay: cell-based. The note with it: 1.0 μg/ml LPS, nigericin 5 μM, NLRP3 inhibitory activity. On the procedure:
THP-1 cells (ATCC #TIB-202) were grown in RPMI containing L-glutamine (Gibco #11835) supplemented with 1 mM sodium pyruvate (Sigma #S8636) and penicillin (100 units/ml)/streptomycin (0.1 mg/ml) (Sigma #P4333) in 10% Fetal Bovine Serum (FBS) (Sigma #F0804). The cells were routinely passaged and grown to confluency (10^6 cells/ml). On the day of the experiment, THP-1 cells were harvested and resuspended into RPMI medium (without FBS). The cells were then counted and viability (>90%) checked by Trypan blue (Sigma #T8154). Appropriate dilutions were made to give a concentration of 625,000 cells/ml. To this diluted cell solution was added LPS (Sigma #L4524) to give a 1 μg/ml Final Assay Concentration (FAC). 40 μl of the final preparation was aliquoted into each well of a 96-well plate. The plate thus prepared was used for compound screening. The following method step-by-step assay was followed for compound screening. • 1. Seed THP-1 cells (25,000 cells/well) containing 1.0 μg/ml LPS in 40 μl of RPMI medium (without FBS) in 96-well, black walled, clear bottom cell culture plates coated with poly-D-lysine (VWR #734-0317) • 2. Add […] compound (8 points half-log dilution, with […] top dose) or vehicle (DMSO 0.1% FAC) to the appropriate wells • 3. Incubate for 3 hrs at 37° C., 5% CO2 • 4. Add 5 μl nigericin (Sigma #N7143) (FAC 5 μM) to all wells • 5. Incubate for 1 hr at 37° C., 5% CO2 • 6. At the end of the incubation period, spin plates at 300×g for 3 mins and remove supernatant • 7. Then add 50 μl of resazurin (Sigma #R7017) (FAC 100 μM resazurin in RPMI medium without FBS) and incubate plates for a further 1-2 hrs at 37° C. and 5% CO2 • 8. Plates were read in an Envision reader at Ex 560 nm and Em 590 nm • 9. IC50 data is fitted to a non-linear regression equation (log inhibitor vs response-variable slope 4-parameters) The results of the pyroptosis assay are summarised in Table 1 below as THP IC50.

Consider 27 molecules from US11530200B2, “Compounds” (Inflazome Limited, priority 2018, dated 2022).

Where a name gives a salt, the structure may show the parent alone.

What is called IC50 is the point on the concentration scale where inhibition reaches its midpoint. Higher therefore signals lower potency.

NLRP3, sequence (Q96P20 whole entry): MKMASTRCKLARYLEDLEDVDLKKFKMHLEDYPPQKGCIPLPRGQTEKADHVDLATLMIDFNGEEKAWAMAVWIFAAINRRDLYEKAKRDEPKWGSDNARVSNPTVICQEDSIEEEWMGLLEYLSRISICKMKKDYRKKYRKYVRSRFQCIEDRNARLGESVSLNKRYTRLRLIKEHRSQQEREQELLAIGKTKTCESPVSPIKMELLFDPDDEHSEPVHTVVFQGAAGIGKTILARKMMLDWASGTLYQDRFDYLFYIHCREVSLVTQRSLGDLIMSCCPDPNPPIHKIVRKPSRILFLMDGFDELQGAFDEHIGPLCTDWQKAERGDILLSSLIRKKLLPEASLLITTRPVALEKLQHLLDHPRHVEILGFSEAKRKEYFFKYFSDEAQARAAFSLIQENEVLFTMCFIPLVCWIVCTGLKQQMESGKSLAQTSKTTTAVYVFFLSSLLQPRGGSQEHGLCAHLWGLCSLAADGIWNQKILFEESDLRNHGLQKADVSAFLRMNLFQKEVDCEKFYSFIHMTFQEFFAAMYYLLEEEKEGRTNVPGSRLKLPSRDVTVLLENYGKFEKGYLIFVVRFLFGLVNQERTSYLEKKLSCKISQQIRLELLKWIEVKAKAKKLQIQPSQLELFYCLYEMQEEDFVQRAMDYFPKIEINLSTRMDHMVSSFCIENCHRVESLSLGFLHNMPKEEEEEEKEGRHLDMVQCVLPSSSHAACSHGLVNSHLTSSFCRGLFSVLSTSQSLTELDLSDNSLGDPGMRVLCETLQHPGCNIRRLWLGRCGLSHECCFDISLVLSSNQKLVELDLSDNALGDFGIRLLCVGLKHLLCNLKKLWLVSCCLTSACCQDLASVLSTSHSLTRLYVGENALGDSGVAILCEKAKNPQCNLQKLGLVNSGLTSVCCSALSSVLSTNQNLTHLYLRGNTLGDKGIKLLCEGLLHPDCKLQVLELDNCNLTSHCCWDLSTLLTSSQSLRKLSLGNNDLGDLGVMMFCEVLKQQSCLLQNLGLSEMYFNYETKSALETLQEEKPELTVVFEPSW

For the molecule `CC(c1cc(S(=O)(=O)NC(=O)Cc2c3c(cc4c2CCC4)CCC3)nn1C1CC1)N(C)C` (stereo not drawn) [Example 15, N-((1-Cyclopropyl-5-(1-(dimethylamino)ethyl)-1H-pyrazol-3-yl)sulfonyl)-2-(1,2,3,5,6,7-hexahydro-s-indacen-4-yl)acetamide], the IC50 fell in the range of 1 to 5 µM.
As for `COc1cc(-c2ccc3c(c2CC(=O)NS(=O)(=O)c2cnn(C4CC4)n2)CCC3)ccn1` [Example 5, N-((2-Cyclopropyl-2H-1,2,3-triazol-4-yl)sulfonyl)-2-(5-(2-methoxypyridin-4-yl)-2,3-dihydro-1H-inden-4-yl)acetamide], the figure is 5 to 10 µM; as for `CC(C)c1cc(F)cc(C(C)C)c1CC(=O)NS(=O)(=O)c1cn(C2CC2)cn1` [Example 28, N-((1-Cyclopropyl-1H-imidazol-4-yl)sulfonyl)-2-(4-fluoro-2,6-diisopropylphenyl)acetamide], 1 to 5 µM; as for `CC(C)c1cc(F)cc(-c2cccnc2)c1CC(=O)NS(=O)(=O)c1cn(C2CC2)cn1` [Example 6, N-((1-Cyclopropyl-1H-imidazol-4-yl)sulfonyl)-2-(4-fluoro-2-isopropyl-6-(pyridin-3-yl)phenyl)acetamide], 5 to 10 µM.
As for `COc1cc(-c2cc(F)cc(C(C)C)c2C(O)C(=O)NS(=O)(=O)c2cnn(C3CC3)c2)ccn1` (stereo not drawn) [Example 10, N-((1-Cyclopropyl-1H-pyrazol-4-yl)sulfonyl)-2-(4-fluoro-2-isopropyl-6-(2-methoxypyridin-4-yl)phenyl)-2-hydroxyacetamide], the figure is 5 to 10 µM; as for `N#Cc1cc(-c2ccc3c(c2CC(=O)NS(=O)(=O)c2cnn(C4CC4)c2)CCC3)ccn1` [Example 30, 2-(5-(2-Cyanopyridin-4-yl)-2,3-dihydro-H-inden-4-yl)-N-((1-cyclopropyl-1H-pyrazol-4-yl)sulfonyl)acetamide], 5 to 10 µM.
On to `CC(C)c1cc(F)cc(-c2ccnc(C#N)c2)c1CC(=O)NS(=O)(=O)c1cnn(C2CC2)c1` [Example 9, 2-(2-(2-Cyanopyridin-4-yl)-4-fluoro-6-isopropylphenyl)-N-((1-cyclopropyl-1H-pyrazol-4-yl)sulfonyl)acetamide], for which the IC50 was 5 to 10 µM.
As for `COc1cc(-c2cc(F)cc(C(C)C)c2CC(=O)NS(=O)(=O)c2ccn(C3CC3)n2)ccn1` [Example 4, N-((1-Cyclopropyl-1H-pyrazol-3-yl)sulfonyl)-2-(4-fluoro-2-isopropyl-6-(2-methoxypyridin-4-yl)phenyl)acetamide], the IC50 was in the range of 1 to 5 µM.
In the case of `CC(C)c1cc(F)cc(-c2ccncc2)c1CC(=O)NS(=O)(=O)c1ccn(C2CC2)n1` [Example 2, N-((1-Cyclopropyl-1H-pyrazol-3-yl)sulfonyl)-2-(4-fluoro-2-isopropyl-6-(pyridin-4-yl)phenyl)acetamide, potassium salt], the IC50 was no more than 1 µM.
As for `N#Cc1cc(-c2ccc3c(c2CC(=O)NS(=O)(=O)c2ccn(C4CC4)n2)CCC3)ccn1` [Example 1, 2-(5-(2-Cyanopyridin-4-yl)-2,3-dihydro-1H-inden-4-yl)-N-((1-cyclopropyl-1H-pyrazol-3-yl)sulfonyl)acetamide], the figure is 1 to 5 µM.
As for `COC1(c2cc(S(=O)(=O)NC(=O)Cc3c4c(cc5c3CCC5)CCC4)nn2C2CC2)COC1` [Example 14, N-((1-Cyclopropyl-5-(3-methoxyoxetan-3-yl)-1H-pyrazol-3-yl)sulfonyl)-2-(1,2,3,5,6,7-hexahydro-s-indacen-4-yl)acetamide], the figure is 1 to 5 µM; as for `COC1(c2cc(S(=O)(=O)NC(=O)Cc3c4c(cc5c3CCC5)CCC4)nn2C(C)C)COC1` [Example 12, 2-(1,2,3,5,6,7-Hexahydro-s-indacen-4-yl)-N-((1-isopropyl-5-(3-methoxyoxetan-3-yl)-1H-pyrazol-3-yl)sulfonyl)acetamide], 1 to 5 µM.
As for `COc1cc(-c2cc(F)cc(C(C)C)c2CC(=O)NS(=O)(=O)c2cnn(C3CC3)n2)ccn1` [Example 20, N-((2-Cyclopropyl-2H-1,2,3-triazol-4-yl)sulfonyl)-2-(4-fluoro-2-isopropyl-6-(2-methoxypyridin-4-yl)phenyl)acetamide], the figure is 1 to 5 µM.
`COc1cc(-c2cc(F)cc(C(C)C)c2CC(=O)NS(=O)(=O)c2cn(C3CC3)cn2)ccn1` [Example 3, N-((1-Cyclopropyl-1H-imidazol-4-yl)sulfonyl)-2-(4-fluoro-2-isopropyl-6-(2-methoxypyridin-4-yl)phenyl)acetamide] displayed an IC50 of 1 to 5 µM.
As for `CC(C)c1cc(F)cc(C(C)C)c1CC(=O)NS(=O)(=O)c1ncn(C2CC2)n1` [Example 25, N-((1-Cyclopropyl-H-1,2,4-triazol-3-yl)sulfonyl)-2-(4-fluoro-2,6-diisopropylphenyl)acetamide], the figure is 5 to 10 µM; as for `COc1cc(-c2ccc3c(c2CC(=O)NS(=O)(=O)c2cnn(C4CC4)c2)CCC3)ccn1` [Example 23, N-((1-Cyclopropyl-H-pyrazol-4-yl)sulfonyl)-2-(5-(2-methoxypyridin-4-yl)-2,3-dihydro-1H-inden-4-yl)acetamide], 1 to 5 µM; as for `CC(C)c1cc(F)cc(-c2cccnc2)c1CC(=O)NS(=O)(=O)c1ncn(C2CC2)n1` [Example 22, N-((1-Cyclopropyl-1H-1,2,4-triazol-3-yl)sulfonyl)-2-(4-fluoro-2-isopropyl-6-(pyridin-3-yl)phenyl)acetamide], 1 to 5 µM.
In the case of `CC(C)c1cc(F)cc(C(C)C)c1CC(=O)NS(=O)(=O)c1cnn(C2CC2)n1` [Example 26, N-((2-Cyclopropyl-2H-1,2,3-triazol-4-yl)sulfonyl)-2-(4-fluoro-2,6-diisopropylphenyl)acetamide] it was 1 to 5 µM; in that of `O=C(Cc1c2c(cc3c1CCC3)CCC2)NS(=O)(=O)c1ccn(C2CC2)n1` [Example 19, N-((1-Cyclopropyl-1H-pyrazol-3-yl)sulfonyl)-2-(1,2,3,5,6,7-hexahydro-s-indacen-4-yl)acetamide], 5 to 10 µM.
As for `CC(C)c1cc(F)cc(-c2ccnc(C#N)c2)c1CC(=O)NS(=O)(=O)c1cnn(C2CC2)n1` [Example 7, 2-(2-(2-Cyanopyridin-4-yl)-4-fluoro-6-isopropylphenyl)-N-((2-cyclopropyl-2H-1,2,3-triazol-4-yl)sulfonyl)acetamide], the figure is 5 to 10 µM; as for `N#Cc1cc(-c2ccc3c(c2CC(=O)NS(=O)(=O)c2cnn(C4CC4)n2)CCC3)ccn1` [Example 8, 2-(5-(2-Cyanopyridin-4-yl)-2,3-dihydro-1H-inden-4-yl)-N-((2-cyclopropyl-2H-1,2,3-triazol-4-yl)sulfonyl)acetamide], 1 to 5 µM.
`CC(C)c1cc(F)cc(C(C)C)c1CC(=O)NS(=O)(=O)c1cc(CN(C)C)n(C2CC2)n1` [Example 16, N-((1-Cyclopropyl-5-((dimethylamino)methyl)-1H-pyrazol-3-yl)sulfonyl)-2-(4-fluoro-2,6-diisopropylphenyl)acetamide] displayed an IC50 of 1 to 5 µM.
Molecule `COC1(c2cc(S(=O)(=O)NC(=O)Cc3c(C(C)C)cc(F)cc3C(C)C)nn2C(C)C)COC1` [Example 29, 2-(4-Fluoro-2,6-diisopropylphenyl)-N-((1-isopropyl-5-(3-methoxyoxetan-3-yl)-1H-pyrazol-3-yl)sulfonyl)acetamide] showed an IC50 of 1 to 5 µM.
In the case of `COC1(c2cc(S(=O)(=O)NC(=O)Cc3c(-c4ccnc(C#N)c4)ccc4c3CCC4)nn2C(C)C)COC1` [Example 13, 2-(5-(2-Cyanopyridin-4-yl)-2,3-dihydro-1H-inden-4-yl)-N-((1-isopropyl-5-(3-methoxyoxetan-3-yl)-1H-pyrazol-3-yl)sulfonyl)acetamide, potassium salt] it was 5 to 10 µM; in that of `CC(C)c1cc(F)cc(-c2cccnc2)c1CC(=O)NS(=O)(=O)c1cnn(C2CC2)n1` [Example 27, N-((2-Cyclopropyl-2H-1,2,3-triazol-4-yl)sulfonyl)-2-(4-fluoro-2-isopropyl-6-(pyridin-3-yl)phenyl)acetamide], 1 to 5 µM; in that of `COc1cc(-c2ccc3c(c2CC(=O)NS(=O)(=O)c2ccn(C4CC4)n2)CCC3)ccn1` [Example 17, N-((1-Cyclopropyl-1H-pyrazol-3-yl)sulfonyl)-2-(5-(2-methoxypyridin-4-yl)-2,3-dihydro-1H-inden-4-yl)acetamide], 1 to 5 µM.
In the case of `CC(C)c1cc(F)cc(-c2ccnc(C#N)c2)c1CC(=O)NS(=O)(=O)c1cn(C2CC2)cn1` [Example 31, 2-(2-(2-Cyanopyridin-4-yl)-4-fluoro-6-isopropylphenyl)-N-((1-cyclopropyl-1H-imidazol-4-yl)sulfonyl)acetamide] it was 5 to 10 µM.
